Test results from article PMC8617031, “Development of a BCL-xL and BCL-2 dual degrader with improved anti-leukemic activity,” (Nature Communications, 2021).
Where “and” joins values, the source holds several entries; their conditions need not be identical. Identical values can stand only once. Like-named read-outs stand apart in the source and are kept apart here.

Assays:
His-tagged BCL-xL = biological target: T1, His-tagged BCL-xL (Homo sapiens, UniProt Q07817); assay: AlphaScreen competitive binary binding, BCL-xL (biotin-BAD peptide); details: for Ki: BCL-xL
T1 construct: purchased Sigma-Aldrich SRP0187
Protocol: (§1) The reagents were diluted in a buffer containing 250 mM HEPES pH 7.5, 1 M NaCl, 1% BSA, and 0.05% Tween-80. His-tagged BCL-xL (0.5 nM, Cat. No. SRP0187, Sigma-Aldrich) or BCL-2 (1 nM, Cat. No. SRP0186, Sigma-Aldrich) were incubated with serial diluted 753a or 753b and 2 nM biotin-tagged BAD (biotin-[…] amino-terminal, AnaSpec, for BCL-xL) or 10 nM BIM peptides (biotin-[…] N-terminal, AnaSpec, for BCL-2) to a final volume of 40 µl in a 96-well PCR plate. […] After incubation for 2 h, 5 µl 6× His-acceptor beads (Cat. No. AL128M, PerkinElmer) were added to each well at 20 µg/ml final concentration and incubated for 1 h. Then 5 µl streptavidin-donor beads were added (Cat. No. 6760002, PerkinElmer) to each well at 20 µg/ml final concentration and incubated for 45 min. At the end of the incubation period, 17 µl of each sample was transferred in adjacent wells of 384-well proxy plate (Cat. No. 6008280, PerkinElmer). The plate was scanned using the Alpha program on Biotek’s Synergy Neo2 multimode plate reader. The inhibition constant (Ki) was calculated using the non-linear regression, one site, competitive binding, Fit Ki function on GraphPad Prism 9 software, based on experimentally determined dissociation constant (Kd) for each protein–peptide pair.

His-tagged BCL-2 = biological target: T2, His-tagged BCL-2 (Homo sapiens, UniProt P10415); assay: AlphaScreen competitive binary binding, BCL-2 (biotin-BIM peptide); details: for Alpha signal normalised to Maximum/Minimum (inhibition): in % (unit assumed)
T2 construct: purchased Sigma-Aldrich SRP0186
Protocol: as §1

BCL-xL = biological target: T3, BCL-xL (Homo sapiens, UniProt Q07817); assay: BCL-xL degradation by immunoblot in Kasumi-1 cells; assay type: cell-based; details: Fig. 7b, two replicate columns
T3 construct: endogenous in cells
Protocol: Tubulin was used as an equal loading control. […] For the viability assays, the data are presented as mean ± s.d. from three replicate cell cultures in a representative experiment. Similar results were also observed in two additional independent experiments. d Representative immunoblot analyses of Kasumi-1 cells 16 h after treatment as indicated. […] Data are representative of two independent experiments. The dotted line represents the value from DMSO-treated cells. Source data are provided as a Source data file.
Cells were collected, washed once with ice-cold phosphate-buffered saline, pH 7.2 (PBS, cat. no. 20012027; Thermo Fisher Scientific) and lysed in RIPA lysis buffer (Cat. No. BP-115DG, Boston Bio Products, Ashland, MA, USA) supplemented with protease and phosphatase inhibitor cocktails (Cat. No. PPC1010, Sigma-Aldrich, St. Louis, MO, USA) through sonication. The samples were centrifuged at 14,000 r.p.m. for 5 min and the supernatants were transferred into a new tube. The protein concentration in the supernatants was determined using the Pierce BCA protein Assay kit (cat. no. 23225, Thermo Fisher Scientific). The protein concentration was normalized, and the samples were reduced in 4× Laemmli’s SDS-sample buffer (cat. no. BP-110R, Boston Bio Products) and denatured at 95 °C for 5 min. An equal amount of protein samples (20–40 μg per lane) were resolved using precast 4–20% Tris-glycine gels (Mini-PROTEAN TGX, cat. no. 456–1094, Bio-Rad), and resolved proteins were transferred onto 0.2-µm pore size polyvinylidene difluoride (PVDF) blotting membranes (cat. no. LC2002, Thermo Fisher Scientific) using mini trans-blot electrophoretic transfer cell (Bio-Rad). The membranes were blocked with non-fat dry milk (5% wt/vol) in 1× Tris-buffered saline-Tween-20 (TBST, cat. no. J77500, Affymetrix) for 1 h at room temperature, and were subsequently probed with primary antibodies at a predetermined optimal concentration in non-fat dry milk (5% wt/vol in TBST) overnight at 4 °C. The membranes were washed three times (5 min each) in TBST and then incubated with horse radish peroxidase (HRP)-conjugated secondary antibodies for 1 h at room temperature. Following sufficient washing with TBST, the membranes were exposed with chemiluminescent HRP substrate (cat. no. WBKLS0500, MilliporeSigma), and the signal was detected using the ChemiDoc MP Imaging System (Bio-Rad) and quantified using the ImageJ (v1.53a) software from NIH.

T2 sequence (P10415 whole entry): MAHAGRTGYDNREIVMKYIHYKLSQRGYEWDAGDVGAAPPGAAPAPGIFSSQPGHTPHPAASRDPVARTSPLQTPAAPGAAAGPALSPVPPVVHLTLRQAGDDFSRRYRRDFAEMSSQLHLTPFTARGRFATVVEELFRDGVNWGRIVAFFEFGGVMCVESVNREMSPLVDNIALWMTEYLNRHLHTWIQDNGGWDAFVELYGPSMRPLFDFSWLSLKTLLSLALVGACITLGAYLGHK
T1 sequence (Q07817 whole entry): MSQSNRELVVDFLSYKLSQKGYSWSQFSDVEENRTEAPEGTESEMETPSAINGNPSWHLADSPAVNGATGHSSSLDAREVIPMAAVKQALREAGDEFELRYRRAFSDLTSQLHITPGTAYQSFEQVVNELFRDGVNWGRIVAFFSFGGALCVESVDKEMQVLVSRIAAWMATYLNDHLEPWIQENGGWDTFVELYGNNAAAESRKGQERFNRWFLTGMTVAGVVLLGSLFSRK
T3 sequence (Q07817 whole entry): as above

## Cc1ncsc1-c1ccc([C@H](C)NC(=O)[C@@H]2C[C@@H](O)CN2C(=O)[C@@H](NC(=O)CCCCCC(=O)N2CCN(CC[C@H](CSc3ccccc3)Nc3ccc(S(=O)(=O)NC(=O)c4ccc(N5CCN(CC6=C(c7ccc(Cl)cc7)CCC(C)(C)C6)CC5)cc4)cc3S(=O)(=O)C(F)(F)F)CC2)C(C)(C)C)cc1 [DT2216]
His-tagged BCL-xL; BCL-xL Rep-2, plate row E, 0.078125 uM
  Alpha signal (raw counts): 567789 and 608705
His-tagged BCL-xL; BCL-xL Rep-2, plate row F, 0.0195312 uM
  Alpha signal (raw counts): 914961 and 1050246
His-tagged BCL-xL; BCL-xL Rep-2, plate row G, 0.00488281 uM
  Alpha signal (raw counts): 1086158 and 1054354
His-tagged BCL-xL; BCL-xL Rep-2, plate row H, 0.0012207 uM
  Alpha signal (raw counts): 1178429 and 1231525
His-tagged BCL-xL; BCL-xL Rep-2, plate row I, 0.000305176 uM
  Alpha signal (raw counts): 1409371 and 1266044
His-tagged BCL-xL; BCL-xL Rep-2, plate row K, 1.90735e-5 uM
  Alpha signal (raw counts): 1319490 and 1464517
His-tagged BCL-xL; mean of the two replicate values (line without label)
  Ki: 3.96 nM
His-tagged BCL-xL; second value (line without label below Rep-1, apparently Rep-2)
  Ki: 2.53 nM
His-tagged BCL-2; BCL-2 Rep-1, 0.000305176 uM, 0.000305176 µM
  Alpha signal normalised to Maximum/Minimum (inhibition): 11.9513
His-tagged BCL-2; BCL-2 Rep-1, 0.000305176 uM, read-out: Alpha signal normalised to Maximum/Minimum (inhibition)
  inhibition at 0.000305176 µM: 15.4%
His-tagged BCL-2; BCL-2 Rep-1, 0.00488281 uM, 0.00488281 µM
  Alpha signal normalised to Maximum/Minimum (inhibition): 42.8592
His-tagged BCL-2; BCL-2 Rep-1, 0.00488281 uM, read-out: Alpha signal normalised to Maximum/Minimum (inhibition)
  inhibition at 0.00488281 µM: 43%
His-tagged BCL-2; BCL-2 Rep-1, 0.0195312 uM, 0.0195312 µM
  Alpha signal normalised to Maximum/Minimum (inhibition): 72.1054
His-tagged BCL-2; BCL-2 Rep-1, 0.0195312 uM, read-out: Alpha signal normalised to Maximum/Minimum (inhibition)
  inhibition at 0.0195312 µM: 69.3%
His-tagged BCL-2; BCL-2 Rep-1, 0.078125 uM, 0.078125 µM
  Alpha signal normalised to Maximum/Minimum (inhibition): 96.9363
His-tagged BCL-2; BCL-2 Rep-1, 0.078125 uM, read-out: Alpha signal normalised to Maximum/Minimum (inhibition)
  inhibition at 0.078125 µM: 96.6%
His-tagged BCL-2; BCL-2 Rep-1, 0.3125 uM, 0.3125 µM
  Alpha signal normalised to Maximum/Minimum (inhibition): 99.419
His-tagged BCL-2; BCL-2 Rep-1, 0.3125 uM, read-out: Alpha signal normalised to Maximum/Minimum (inhibition)
  inhibition at 0.3125 µM: 100%
His-tagged BCL-2; BCL-2 Rep-1, 1.25 uM, 1.25 µM
  Alpha signal normalised to Maximum/Minimum (inhibition): 99.6178
His-tagged BCL-2; BCL-2 Rep-1, 1.25 uM, read-out: Alpha signal normalised to Maximum/Minimum (inhibition)
  inhibition at 1.25 µM: 99.6%
His-tagged BCL-2; BCL-2 Rep-1, 5 uM, 5 µM
  Alpha signal normalised to Maximum/Minimum (inhibition): 99.391
His-tagged BCL-2; BCL-2 Rep-1, 5 uM, read-out: Alpha signal normalised to Maximum/Minimum (inhibition)
  inhibition at 5 µM: 100%
His-tagged BCL-2; BCL-2 Rep-2, 0.00488281 uM
  Alpha signal (raw counts): 457290 and 444842
His-tagged BCL-2; BCL-2 Rep-2, 0.0195312 uM, 0.0195312 µM
  Alpha signal normalised to Maximum/Minimum (inhibition): 73.927
His-tagged BCL-2; BCL-2 Rep-2, 0.0195312 uM, read-out: Alpha signal normalised to Maximum/Minimum (inhibition)
  inhibition at 0.0195312 µM: 72.6%
His-tagged BCL-2; BCL-2 Rep-2, 0.078125 uM, 0.078125 µM
  Alpha signal normalised to Maximum/Minimum (inhibition): 98.4863
His-tagged BCL-2; BCL-2 Rep-2, 0.078125 uM, read-out: Alpha signal normalised to Maximum/Minimum (inhibition)
  inhibition at 0.078125 µM: 98.1%
His-tagged BCL-2; BCL-2 Rep-2, 0.3125 uM, 0.3125 µM
  Alpha signal normalised to Maximum/Minimum (inhibition): 98.9063
His-tagged BCL-2; BCL-2 Rep-2, 0.3125 uM, read-out: Alpha signal normalised to Maximum/Minimum (inhibition)
  inhibition at 0.3125 µM: 98.5%
His-tagged BCL-2; BCL-2 Rep-2, 1.25 uM, 1.25 µM
  Alpha signal normalised to Maximum/Minimum (inhibition): 100.524
His-tagged BCL-2; BCL-2 Rep-2, 1.25 uM, read-out: Alpha signal normalised to Maximum/Minimum (inhibition)
  inhibition at 1.25 µM: 101%
His-tagged BCL-2; BCL-2 Rep-2, 5 uM, 5 µM
  Alpha signal normalised to Maximum/Minimum (inhibition): 100.141
His-tagged BCL-2; BCL-2 Rep-2, 5 uM, read-out: Alpha signal normalised to Maximum/Minimum (inhibition)
  inhibition at 5 µM: 99.9%
His-tagged BCL-2; BCL-2 Rep-2, plate row B, 5 uM
  Alpha signal (raw counts): 15606 and 13933
His-tagged BCL-2; BCL-2 Rep-2, plate row C, 1.25 uM
  Alpha signal (raw counts): 9913 and 10759
His-tagged BCL-2; BCL-2 Rep-2, plate row D, 0.3125 uM
  Alpha signal (raw counts): 27814 and 24179
His-tagged BCL-2; BCL-2 Rep-2, plate row E, 0.078125 uM
  Alpha signal (raw counts): 30701 and 27663
His-tagged BCL-2; BCL-2 Rep-2, plate row F, 0.0195312 uM
  Alpha signal (raw counts): 242422 and 231401
His-tagged BCL-2; BCL-2 Rep-2, plate row H, 0.0012207 uM
  Alpha signal (raw counts): 765240 and 763074
His-tagged BCL-2; BCL-2 Rep-2, plate row I, 0.000305176 uM
  Alpha signal (raw counts): 762866 and 759346
His-tagged BCL-2; BCL-2 Rep-2, plate row J, 7.62939e-5 uM
  Alpha signal (raw counts): 726537 and 792609
His-tagged BCL-2; BCL-2 Rep-2, plate row K, 1.90735e-5 uM
  Alpha signal (raw counts): 756626 and 814053
BCL-xL; concentration 0.01
  BCL-xL level, bar graph (0 = 100): 86 and 92
BCL-xL; concentration 0.03
  BCL-xL level, bar graph (0 = 100): 59 and 63
BCL-xL; concentration 0.1
  BCL-xL level, bar graph (0 = 100): 38 and 33
BCL-xL; concentration 0.3
  BCL-xL level, bar graph (0 = 100): 22 and 25
BCL-xL; concentration 1
  BCL-xL level, bar graph (0 = 100): 11 and 12
